{"source": "patent US20230293629A1", "about": "“METHODS FOR ATTENUATING RELEASE OF INFLAMMATORY MEDIATORS AND PEPTIDES USEFUL THEREIN” (BIOMARCK PHARMACEUTICALS LTD., priority 2006, published 2023)", "test_system": "HL-60 clone 15 cells", "experiment": "PMA-stimulated EPO release from HL-60 clone 15 cells", "assay_type": "cell-based, human", "details": "for % Inhibition EPO: 50 μM test peptide, two hour incubation with 100 nM PMA, HL-60 clone 15 cells", "procedure": "Three types of human leukocyte cell lines, specifically the promyelocytic cell line HL-60 clone 15, the monocytic cell line U937, and the lymphocyte natural killer cell line NK-92 were purchased from American Type Culture Collection (ATCC; Rockville, MD). HL-60 clone 15 cells (ATCC CRL-1964) were maintained in medium consisting of RPMI 1640 with L-glutamine supplemented with 10% heat-inactivated fetal bovine serum (Gibco; Invitrogen Co., Carlsbad, CA), 50 IU/ml penicillin, 50 μg/mL streptomycin, and 25 mM HEPES buffer, pH 7.8, at 37° C. in an atmosphere containing 5% CO2. Final differentiation to an eosinophil-like phenotype was initiated by culturing cells at 5×10^5 cells/ml in the above medium containing 0.5 mM butyric acid (Sigma-Aldrich Co.) for 5 days as previously described (Tiffany H L, Li F, Rosenberg H F. Hyperglycosylation of eosinophil ribonucleases in a promyelocytic leukemia cell line and in differentiated peripheral blood progenitor cells. J Leukoc Biol 1995; 58:49-54; Tiffany H L, Alkhatib G, Combadiere C, Berger E A, Murphy P M. CC chemokine receptors 1 and 3 are differentially regulated by IL-5 during maturation of eosinophilic HL-60 cells. J Immunol 1998; 160:1385-1392). U937 cells (ATCC CRL-1593.2) were grown at 37° C. in an atmosphere of 5% CO2 in complete medium consisting of RPMI 1640 with L-glutamine supplemented with 10% FBS, 50 IU/ml penicillin, and 50 μg/mL streptomycin. NK-92 cells (ATCC CRL-2407) were maintained in alpha-MEM medium (Sigma-Aldrich Co.) supplemented with 20% FBS, 100 U/ml of interleukin-2 (IL-2) (Chemicon International, Inc., Temecula, CA), 5×10^−5 M of 2-mercaptoethanol, 50 IU/mL penicillin, and 50 μg/ml streptomycin at 37° C. in an atmosphere containing 5% CO2. Cell morphology was judged by assessment of Wright-Giemsa-stained cells. Viability of cells harvested for experiments was assessed by trypan blue exclusion and populations of cells with viability >95% were used.\nHL-60 clone 15, U937, and NK-92 cells were washed and resuspended at 2.5×10^6 cells/ml in phenol red-free RPMI-1640 (Cellgro; Mediatech, Inc.) for all degranulation assays. Aliquots of cells in 15 ml tubes were preincubated with indicated concentrations of MANS, RNS, or a test peptide for 10 min at 37° C. The cells then were stimulated with PMA for up to 2 hr. A control reference (PMA control reference) was established for each cell type using HL-60 clone 15, U937, and NK-92 cells, respectively, which were washed and resuspended at 2.5×10^6 cells/ml in phenol red-free RPMI-1640 and stimulated with PMA but in the absence of MANS, RNS, or a test peptide for the same time periods. The reaction was terminated by placing tubes on ice and centrifuging cells at 400 g for 5 min at 4° C.\nFor measurements of released MPO from neutrophils and released lysozyme from U937 cells, we were able to quantify secretion by using as standards human MPO and egg white […], respectively. For released EPO from HL-60 clone 15 cells and for released granzyme from NK-92 cells, no standards were available to use for quantification. […] To measure intracellular EPO in HL-60 clone 15 cells and intracellular granzyme in NK-92 cells, appropriate aliquots of 0.1% triton X-100-lysed cells were taken for quantification of intracellular granule proteins as described below. All treatments were expressed as percentage of control to minimize variability between cultures.\nEPO activity released by HL-60 clone 15 cells was assayed using TMB according to a previously established technique (Lacy P, Mahmudi-Azer S, Bablitz B, Hagen S C, Velazquez J R, Man S F, Moqbel R. Rapid mobilization of intracellularly stored RANTES in response to interferon-gamma in human eosinophils. Blood 1999; 94:23-32). Thus, 100 μL of TMB substrate solution was added to 50 μL=microliters) of sample in a 96-well microplate and incubated at room temperature for 15 min (min=minutes). […]", "note": "Where a SMILES comes first, the peptide text is derived from it. Where no end group is shown, it is not given here. The star is where a group is joined. Myristoyl = CCCCCCCCCCCCCC(=O)*"}
{"compound": "CCCCCCCCCCCCCC(=O)NCC(=O)N[C@H](C(=O)N[C@@H](C)C(=O)N1CCC[C@H]1C(=O)N[C@@H](C)C(=O)N[C@@H](C)C(=O)N[C@@H](CCC(=O)O)C(=O)NCC(=O)N[C@@H](C)C(=O)NCC(=O)N[C@@H](C)C(=O)N[C@@H](CCC(=O)O)C(=O)N[C@H](C(=O)N[C@@H](CCCCN)C(=O)N[C@@H](CCCNC(=N)N)C(=O)N[C@@H](C)C(=O)N[C@@H](CO)C(=O)N[C@@H](C)C(=O)N[C@@H](CCC(=O)O)C(=O)N[C@@H](C)C(=O)N[C@@H](CCCCN)C(=O)N[C@@H](CCC(N)=O)C(=O)N[C@@H](C)C(=O)N[C@@H](Cc1ccccc1)C(=O)O)C(C)C)[C@@H](C)O", "note": "[RNS, reference compound] (Myristoyl-GTAPAAEGAGAEVKRASAEAKQAF-OH; C-terminus assumed)", "values": [{"measurement": "% Inhibition EPO", "result": 0, "unit": "%"}, {"measurement": "effect on PMA-enhanced EPO release", "setting": "any of the time points or concentrations tested", "result": "did not affect"}]}
{"compound": "CCCCCCCCCCCCCC(=O)NCC(=O)N[C@@H](C)C(=O)N[C@@H](CCC(N)=O)C(=O)N[C@@H](Cc1ccccc1)C(=O)N[C@@H](CO)C(=O)N[C@@H](CCCCN)C(=O)N[C@H](C(=O)N[C@@H](C)C(=O)N[C@@H](C)C(=O)N[C@@H](CCCCN)C(=O)NCC(=O)N[C@@H](CCC(=O)O)C(=O)N[C@@H](C)C(=O)N[C@@H](C)C(=O)N[C@@H](C)C(=O)N[C@@H](CCC(=O)O)C(=O)N[C@@H](CCCNC(=N)N)C(=O)N1CCC[C@H]1C(=O)NCC(=O)N[C@@H](CCC(=O)O)C(=O)N[C@@H](C)C(=O)N[C@@H](C)C(=O)N[C@H](C(=O)N[C@@H](C)C(=O)O)C(C)C)[C@@H](C)O", "note": "[MANS] (Myristoyl-GAQFSKTAAKGEAAAERPGEAAVA-OH; C-terminus assumed)", "values": [{"measurement": "reduction in EPO activity relative to the PMA control reference", "setting": "10 μM, 1 hour", "result": "about 15%"}, {"measurement": "EPO activity relative to control as 100%", "setting": "10 μM, 1 hour, PMA control reference about 110%", "result": "about 95%"}, {"measurement": "reduction in EPO activity relative to the PMA control reference", "setting": "10 μM, 2 hour", "result": "about 10%"}, {"measurement": "EPO activity relative to control as 100%", "setting": "10 μM, 2 hour, PMA control reference about 145%", "result": "about 130%"}, {"measurement": "% Inhibition EPO", "result": 46.1, "unit": "%"}, {"measurement": "reduction in EPO activity relative to the PMA control reference", "setting": "50 μM, 1 hour", "result": "about 30%"}, {"measurement": "EPO activity relative to control as 100%", "setting": "50 μM, 1 hour, PMA control reference about 110%", "result": "about 78%"}, {"measurement": "reduction in EPO activity relative to the PMA control reference", "setting": "50 μM, 2 hour", "result": "about 50%"}, {"measurement": "EPO activity relative to control as 100%", "setting": "50 μM, 2 hour, PMA control reference about 145%", "result": "about 70%"}, {"measurement": "reduction in EPO activity relative to the PMA control reference", "setting": "100 μM, 1 hour", "result": "about 40%"}, {"measurement": "EPO activity relative to control as 100%", "setting": "100 μM, 1 hour, PMA control reference about 110%", "result": "about 65%"}, {"measurement": "reduction in EPO activity relative to the PMA control reference", "setting": "100 μM, 2 hour", "result": "about 50%"}, {"measurement": "EPO activity relative to control as 100%", "setting": "100 μM, 2 hour, PMA control reference about 145%", "result": "about 72%"}]}
{"compound": "Ac-GAQFSKTAAK [Ac-GAQFSKTAAK]", "values": [{"measurement": "% Inhibition EPO", "result": 35.7, "unit": "%"}]}
{"compound": "Ac-GAQFSKTAAKGEAAAERPGEAAVA", "values": [{"measurement": "% Inhibition EPO", "result": 33.7, "unit": "%"}]}
